# Legend:
# [1] = Solid stability test (XRPD and HPLC purity); format: physicochemical
# Method: Samples placed under high temperature and high humidity conditions were sealed with aluminum foil paper and small holes were punched in the aluminum foil paper to ensure that the sample could fully contact with ambient air; […] Samples placed under high temperature (60° C.) and high humidity (92.5% humidity, room temperature) conditions were sampled and tested (XRPD and purity) on the 5th and 10th day. […] Samples placed under the condition of illumination were sampled and tested when the total illuminance reached 1.2×10^6 Lux·hr.
# [2] = Hygroscopicity by dynamic vapor sorption (DVS); format: physicochemical; settings: 25° C. and 80% RH
# Method: Instrument model: Intrinsic dynamic vapor sorption instrument
# Detection conditions: A sample (10-30 mg) was placed in a DVS sample tray for detection.
# Balance: dm/dt=0.002%/min (shortest: 10 min, longest: 180 min)
# [3] = In vivo pharmacokinetic study in beagle dogs after single administration; settings: male, dog, plasma, 10 mg/kg, 10 mpk oral administration
# Method: Male beagle dogs were used as test animals, the concentration of the compound in blood after single administration was determined to evaluate the pharmacokinetic behavior.
# Beagle dogs (Male, 6-12 kg, more than 6 months, Beijing Marshall Biotechnology Co., Ltd.).
# The objective of the test was to study the pharmacokinetic characteristics of the test compound in non-rodent after intravenous injection and oral administration. In the experiment, the test compound was prepared into a clear solution or homogeneous suspension and administered to the beagle dogs by single intravenous injection or oral administration. In the intravenous injection group, the menstruum was a certain proportion of dimethyl sulfoxide in HP-β-cyclodextrin solution or a certain proportion of ethanol, polyethylene glycol 400 and physiological saline solution, the mixture was vortexed and subjected to ultrasonic treatment to prepare 2 mg/mL clear solution, then filtered with microporous membrane for later use; in the oral administration group, the menstruum was a certain proportion of dimethyl sulfoxide in HP-β-cyclodextrin solution or a certain proportion of sodium carboxymethyl cellulose solution, the test compound was mixed with the menstruum, vortexed and subjected to ultrasonic treatment to prepare 2 mg/mL homogeneous suspension for later use. After 2 mg/kg intravenous administration or 10 mg/kg oral administration to the Beagle dogs, a certain amount of whole blood samples were collected, centrifuged at 3000 g for 10 minutes, and the supernatant was separated to obtain plasma samples; then an acetonitrile solution containing internal standard with a volume 10 times that of the plasma sample was added to precipitate proteins, and then centrifuged; the supernatant was separated for analysis; LC-MS/MS analysis method was used to quantitatively analyze the blood drug concentration, and Phoenix WinNonlin software (Pharsight, USA) was used to calculate the pharmacokinetic parameters, such as peak concentration, time to peak concentration, clearance rate, half-life, area under the concentration-time curve, bioavailability, etc.
# (§1) Among them, C0 is the initial concentration, T1/2 is the elimination half-life, Vdss is the steady-state apparent volume of distribution, Cl is the total clearance rate, AUC0-inf is the area under the plasma drug concentration-time curve from time 0 to infinity, Cmax is the peak concentration, Tmax is the time to peak concentration.
# [4] = In vivo pharmacokinetic study in rats after single administration; settings: male, Sprague Dawley, rat, plasma, 300 mg/kg, 300 mpk oral administration
# Method: Male SD rats were used as test animals, and the concentration of the compound in blood was determined after single administration to evaluate the pharmacokinetic behavior.
# Sprague Dawley rats (male, 200-300 g, 7-9 weeks, Shanghai Charles River Laboratory Animal Co., Ltd.)
# The pharmacokinetic characteristics of the test compound in rodents after intravenous injection and oral administration were tested by standard protocols, in the experiment, the test compound was prepared into a clear solution or homogeneous suspension, and administered to the rats by single intravenous injection and oral administration. In the intravenous injection group, the menstruum was a certain proportion of ethanol and physiological saline solution or a certain proportion of dimethyl sulfoxide in HP-β cyclodextrin solution (the pH was adjusted to 3-4), the mixture was vortexed and stirred to prepare 1 mg/mL clear solution, then filtered with microporous membrane for later use; in the oral administration group, the menstruum was a certain proportion of sodium carboxymethyl cellulose solution or a certain proportion of dimethyl sulfoxide in HP-β cyclodextrin solution (the pH was adjusted to about 4), after the test compound was mixed with the solvent, the mixture was vortexed and stirred to prepare 30 mg/mL homogeneous suspension for later use. After 2 mg/kg intravenous administration or 300 mg/kg oral administration to rats, a certain amount of whole blood samples were collected, centrifuged at 3000 g for 15 minutes, the supernatant was separated to obtain the plasma samples; then an acetonitrile solution containing internal standard with a volume 3 times that of the plasma sample was added to precipitate proteins, and then centrifuged; the supernatant was separated, and water with a volume twice that of the supernatant was added to the supernatant, which was then centrifuged again; the supernatant was collected for analysis; LC-MS/MS analysis method was used to quantitatively analyze the blood drug concentration, and Phoenix WinNonlin software (Pharsight, USA) was used to calculate the pharmacokinetic parameters, such as peak concentration, time to peak concentration, clearance rate, half-life, area under the concentration-time curve, bioavailability, etc.
# as §1
# [5] = 40° C., relative humidity 75%, opened, 30 days
# [6] = 40° C., relative humidity 75%, opened, 60 days
# [7] = 60° C., relative humidity 75%, opened, 30 days
# [8] = 60° C., relative humidity 75%, opened, 60 days
# [9] = High humidity (room temperature/relative humidity 92.5%, opened), 5 days
# [10] = High humidity (room temperature/relative humidity 92.5%, opened), 10 days
# [11] = High temperature (60° C., opened), 5 days
# [12] = High temperature (60° C., opened), 10 days
# [13] = Illumination (total illuminance 1.2 × 10^6 Lux · hr/near ultraviolet 200 w · hr/m^2, opened)
structure (smiles),measurement,setting,value
COCCN1C[C@@H](n2ccc(F)c2)[C@H](NC(=O)Nc2c(C)c(-c3cnc(C4(F)COC4)nc3)nn2-c2ccccc2)C1,Crystal form (XRPD),[1]; 0 day (initial),Crystal form E
same,Purity,[1]; 0 day (initial),98.75%
same,Crystal form (XRPD),[1]; [5],Crystal form E
same,Purity,[1]; [5],98.14%
same,Crystal form (XRPD),[1]; [6],Crystal form E
same,Purity,[1]; [6],98.06%
same,Crystal form (XRPD),[1]; [7],Crystal form E
same,Purity,[1]; [7],98.17%
same,Crystal form (XRPD),[1]; [8],Crystal form E
same,Purity,[1]; [8],98.22%
same,Crystal form (XRPD),[1]; [9],Crystal form E
same,Purity,[1]; [9],98.62%
same,Crystal form (XRPD),[1]; [10],Crystal form E
same,Purity,[1]; [10],98.72%
same,Crystal form (XRPD),[1]; [11],Crystal form E
same,Purity,[1]; [11],98.74%
same,Crystal form (XRPD),[1]; [12],Crystal form E
same,Purity,[1]; [12],98.74%
same,Crystal form (XRPD),[1]; [13],Crystal form E
same,Purity,[1]; [13],98.83%
same,Classification of hygroscopicity,[2],hygroscopic (15% > ΔW % ≥ 2%)
same,hygroscopic weight gain ΔW,[2],6.228%
same,AUC(0-inf),[3],26.4 µM·h
same,Cmax,[3],10.4 µM
same,Tmax,[3],45 min
same,bioavailability,[3],113%
same,half-life,[3],57 min
same,AUC(0-inf),[4],276 µM·h
same,Cmax,[4],48.5 µM
same,Tmax,[4],45 min
same,bioavailability,[4],70.5%
same,half-life,[4],195 min

# Reference: patent US11708357B2, “Crystal form of pyrrolidinyl urea derivative and application thereof” (ZHANGZHOU PIEN TZE HUANG PHARMACEUTICAL CO., LTD., priority 2020, dated 2023)
